Laboratory results reported in patent US11980596B2 (priority 2017, dated 2024).

What was measured:
[1] = tested on: patients with treatment-resistant depression (TRD); test: Adverse events (Example 7); assay type: in vivo, human; conditions: for Dissociation, number of participants / Dissociative disorder, % of participants / Dissociative disorder, number of participants / Dizziness, % of participants / Dizziness, number of participants / Dysgeusia, % of participants / Dysgeusia, number of participants / Feeling abnormal, % of participants / Feeling abnormal, number of participants / Headache, % of participants / Headache, number of participants / Hypersomnia, % of participants / Hypersomnia, number of participants / Hypertension, number of participants / Hypoesthesia oral, % of participants / Hypoesthesia oral, number of participants / Insomnia, number of participants / Nasal discomfort, number of participants / Nausea, % of participants / Nausea, number of participants / Oropharyngeal pain, number of participants / Polyuria, number of participants / Sedation, % of participants / Sedation, number of participants / Throat irritation, % of participants / Throat irritation, number of participants / Total with events, % of participants / Total with events, number of participants / Tunnel vision, number of participants / Vertigo, % of participants / Vertigo, number of participants / Vision blurred, number of participants / Dissociation, % of participants / Hypertension, % of participants / Insomnia, % of participants / Nasal discomfort, % of participants / Oropharyngeal pain, % of participants / Polyuria, % of participants / Tunnel vision, % of participants / Vision blurred, % of participants: double-blind
Protocol: Adverse events were monitored throughout the study. Other safety assessments (i.e., laboratory tests, vital signs, physical examination) were performed at pre-specified time points. Vital signs, the Clinician Administered Dissociative States Scale (CADSS; Bremner, “Measurement of dissociative states with the clinician-administered dissociative states scale (CADSS)”, J. Traumatic Stress, 1998, 11(1):125-136), and the 4-item positive symptom subscale from the Brief Psychiatric Rating Scale (BPRS; Overall, “The Brief Psychiatric Rating Scale. Psychological Reports”, 1962, 10:799-812) were assessed pre-dose, at 40 minutes, and 2 hours post-dose.
Safety data were analyzed in Period 1, Period 2, double-blind, and open-label data sets, for all subjects receiving at least 1 dose of study medication.

[2] = Screening in vitro micronucleus test; conditions: in the presence of metabolic activation

CN[C@]1(c2ccccc2Cl)CCCCC1=O [esketamine, (S)-2-(2-chlorophenyl)-2-(methylamino)cyclohexanone]
Dissociation, number of participants ([1]; esketamine 28 mg, N = 19): 0
Dissociative disorder, % of participants ([1]; esketamine 28 mg, N = 19): (11) %
Dissociative disorder, number of participants ([1]; esketamine 28 mg, N = 19): 2
Dizziness, % of participants ([1]; esketamine 28 mg, N = 19): (21) %
Dizziness, number of participants ([1]; esketamine 28 mg, N = 19): 4
Dysgeusia, % of participants ([1]; esketamine 28 mg, N = 19): (11) %
Dysgeusia, number of participants ([1]; esketamine 28 mg, N = 19): 2
Feeling abnormal, % of participants ([1]; esketamine 28 mg, N = 19): (11) %
Feeling abnormal, number of participants ([1]; esketamine 28 mg, N = 19): 2
Headache, % of participants ([1]; esketamine 28 mg, N = 19): (32) %
Headache, number of participants ([1]; esketamine 28 mg, N = 19): 6
Hypersomnia, % of participants ([1]; esketamine 28 mg, N = 19): (11) %
Hypersomnia, number of participants ([1]; esketamine 28 mg, N = 19): 2
Hypertension, number of participants ([1]; esketamine 28 mg, N = 19): 0
Hypoesthesia oral, % of participants ([1]; esketamine 28 mg, N = 19): (5) %
Hypoesthesia oral, number of participants ([1]; esketamine 28 mg, N = 19): 1
Insomnia, number of participants ([1]; esketamine 28 mg, N = 19): 0
Nasal discomfort, number of participants ([1]; esketamine 28 mg, N = 19): 0
Nausea, % of participants ([1]; esketamine 28 mg, N = 19): (11) %
Nausea, number of participants ([1]; esketamine 28 mg, N = 19): 2
Oropharyngeal pain, number of participants ([1]; esketamine 28 mg, N = 19): 0
Polyuria, number of participants ([1]; esketamine 28 mg, N = 19): 0
Sedation, % of participants ([1]; esketamine 28 mg, N = 19): (5) %
Sedation, number of participants ([1]; esketamine 28 mg, N = 19): 1
Throat irritation, % of participants ([1]; esketamine 28 mg, N = 19): (5) %
Throat irritation, number of participants ([1]; esketamine 28 mg, N = 19): 1
Total with events, % of participants ([1]; esketamine 28 mg, N = 19): (58) %
Total with events, number of participants ([1]; esketamine 28 mg, N = 19): 11
Tunnel vision, number of participants ([1]; esketamine 28 mg, N = 19): 0
Vertigo, % of participants ([1]; esketamine 28 mg, N = 19): (11) %
Vertigo, number of participants ([1]; esketamine 28 mg, N = 19): 2
Vision blurred, number of participants ([1]; esketamine 28 mg, N = 19): 0
Dissociation, % of participants ([1]; esketamine 56 mg, N = 20): (35) %
Dissociation, number of participants ([1]; esketamine 56 mg, N = 20): 7
Dissociative disorder, % of participants ([1]; esketamine 56 mg, N = 20): (5) %
Dissociative disorder, number of participants ([1]; esketamine 56 mg, N = 20): 1
Dizziness, % of participants ([1]; esketamine 56 mg, N = 20): (40) %
Dizziness, number of participants ([1]; esketamine 56 mg, N = 20): 8
Dysgeusia, % of participants ([1]; esketamine 56 mg, N = 20): (15) %
Dysgeusia, number of participants ([1]; esketamine 56 mg, N = 20): 3
Feeling abnormal, % of participants ([1]; esketamine 56 mg, N = 20): (5) %
Feeling abnormal, number of participants ([1]; esketamine 56 mg, N = 20): 1
Headache, % of participants ([1]; esketamine 56 mg, N = 20): (15) %
Headache, number of participants ([1]; esketamine 56 mg, N = 20): 3
Hypersomnia, number of participants ([1]; esketamine 56 mg, N = 20): 0
Hypertension, % of participants ([1]; esketamine 56 mg, N = 20): (10) %
Hypertension, number of participants ([1]; esketamine 56 mg, N = 20): 2
Hypoesthesia oral, % of participants ([1]; esketamine 56 mg, N = 20): (20) %
Hypoesthesia oral, number of participants ([1]; esketamine 56 mg, N = 20): 4
Insomnia, % of participants ([1]; esketamine 56 mg, N = 20): (10) %
Insomnia, number of participants ([1]; esketamine 56 mg, N = 20): 2
Nasal discomfort, % of participants ([1]; esketamine 56 mg, N = 20): (10) %
Nasal discomfort, number of participants ([1]; esketamine 56 mg, N = 20): 2
Nausea, % of participants ([1]; esketamine 56 mg, N = 20): (20) %
Nausea, number of participants ([1]; esketamine 56 mg, N = 20): 4
Oropharyngeal pain, % of participants ([1]; esketamine 56 mg, N = 20): (5) %
Oropharyngeal pain, number of participants ([1]; esketamine 56 mg, N = 20): 1
Polyuria, % of participants ([1]; esketamine 56 mg, N = 20): (10) %
Polyuria, number of participants ([1]; esketamine 56 mg, N = 20): 2
Sedation, % of participants ([1]; esketamine 56 mg, N = 20): (10) %
Sedation, number of participants ([1]; esketamine 56 mg, N = 20): 2
Throat irritation, number of participants ([1]; esketamine 56 mg, N = 20): 0
Total with events, % of participants ([1]; esketamine 56 mg, N = 20): (80) %
Total with events, number of participants ([1]; esketamine 56 mg, N = 20): 16
Tunnel vision, number of participants ([1]; esketamine 56 mg, N = 20): 0
Vertigo, % of participants ([1]; esketamine 56 mg, N = 20): (5) %
Vertigo, number of participants ([1]; esketamine 56 mg, N = 20): 1
Vision blurred, number of participants ([1]; esketamine 56 mg, N = 20): 0
Dissociation, % of participants ([1]; esketamine 84 mg, N = 17): (24) %
Dissociation, number of participants ([1]; esketamine 84 mg, N = 17): 4
Dissociative disorder, % of participants ([1]; esketamine 84 mg, N = 17): (24) %
Dissociative disorder, number of participants ([1]; esketamine 84 mg, N = 17): 4
Dizziness, % of participants ([1]; esketamine 84 mg, N = 17): (47) %
Dizziness, number of participants ([1]; esketamine 84 mg, N = 17): 8
Dysgeusia, % of participants ([1]; esketamine 84 mg, N = 17): (29) %
Dysgeusia, number of participants ([1]; esketamine 84 mg, N = 17): 5
Feeling abnormal, % of participants ([1]; esketamine 84 mg, N = 17): (6) %
Feeling abnormal, number of participants ([1]; esketamine 84 mg, N = 17): 1
Headache, % of participants ([1]; esketamine 84 mg, N = 17): (18) %
Headache, number of participants ([1]; esketamine 84 mg, N = 17): 3
Hypersomnia, number of participants ([1]; esketamine 84 mg, N = 17): 0
Hypertension, % of participants ([1]; esketamine 84 mg, N = 17): (6) %
Hypertension, number of participants ([1]; esketamine 84 mg, N = 17): 1
Hypoesthesia oral, % of participants ([1]; esketamine 84 mg, N = 17): (12) %
Hypoesthesia oral, number of participants ([1]; esketamine 84 mg, N = 17): 2
Insomnia, number of participants ([1]; esketamine 84 mg, N = 17): 0
Nasal discomfort, % of participants ([1]; esketamine 84 mg, N = 17): (6) %
Nasal discomfort, number of participants ([1]; esketamine 84 mg, N = 17): 1
Nausea, % of participants ([1]; esketamine 84 mg, N = 17): (24) %
Nausea, number of participants ([1]; esketamine 84 mg, N = 17): 4
Oropharyngeal pain, % of participants ([1]; esketamine 84 mg, N = 17): (12) %
Oropharyngeal pain, number of participants ([1]; esketamine 84 mg, N = 17): 2
Polyuria, number of participants ([1]; esketamine 84 mg, N = 17): 0
Sedation, % of participants ([1]; esketamine 84 mg, N = 17): (6) %
Sedation, number of participants ([1]; esketamine 84 mg, N = 17): 1
Throat irritation, % of participants ([1]; esketamine 84 mg, N = 17): (12) %
Throat irritation, number of participants ([1]; esketamine 84 mg, N = 17): 2
Total with events, % of participants ([1]; esketamine 84 mg, N = 17): (88) %
Total with events, number of participants ([1]; esketamine 84 mg, N = 17): 15
Tunnel vision, % of participants ([1]; esketamine 84 mg, N = 17): (12) %
Tunnel vision, number of participants ([1]; esketamine 84 mg, N = 17): 2
Vertigo, % of participants ([1]; esketamine 84 mg, N = 17): (6) %
Vertigo, number of participants ([1]; esketamine 84 mg, N = 17): 1
Vision blurred, % of participants ([1]; esketamine 84 mg, N = 17): (12) %
Vision blurred, number of participants ([1]; esketamine 84 mg, N = 17): 2
Dissociation, % of participants ([1]; esketamine Total, N = 56): (20) %
Dissociation, number of participants ([1]; esketamine Total, N = 56): 11
Dissociative disorder, % of participants ([1]; esketamine Total, N = 56): (13) %
Dissociative disorder, number of participants ([1]; esketamine Total, N = 56): 7
Dizziness, % of participants ([1]; esketamine Total, N = 56): (36) %
Dizziness, number of participants ([1]; esketamine Total, N = 56): 20
Dysgeusia, % of participants ([1]; esketamine Total, N = 56): (18) %
Dysgeusia, number of participants ([1]; esketamine Total, N = 56): 10
Feeling abnormal, % of participants ([1]; esketamine Total, N = 56): (7) %
Feeling abnormal, number of participants ([1]; esketamine Total, N = 56): 4
Headache, % of participants ([1]; esketamine Total, N = 56): (21) %
Headache, number of participants ([1]; esketamine Total, N = 56): 12
Hypersomnia, % of participants ([1]; esketamine Total, N = 56): (4) %
Hypersomnia, number of participants ([1]; esketamine Total, N = 56): 2
Hypertension, % of participants ([1]; esketamine Total, N = 56): (5) %
Hypertension, number of participants ([1]; esketamine Total, N = 56): 3
Hypoesthesia oral, % of participants ([1]; esketamine Total, N = 56): (13) %
Hypoesthesia oral, number of participants ([1]; esketamine Total, N = 56): 7
Insomnia, % of participants ([1]; esketamine Total, N = 56): (4) %
Insomnia, number of participants ([1]; esketamine Total, N = 56): 2
Nasal discomfort, % of participants ([1]; esketamine Total, N = 56): (5) %
Nasal discomfort, number of participants ([1]; esketamine Total, N = 56): 3
Nausea, % of participants ([1]; esketamine Total, N = 56): (18) %
Nausea, number of participants ([1]; esketamine Total, N = 56): 10
Oropharyngeal pain, % of participants ([1]; esketamine Total, N = 56): (5) %
Oropharyngeal pain, number of participants ([1]; esketamine Total, N = 56): 3
Polyuria, % of participants ([1]; esketamine Total, N = 56): (4) %
Polyuria, number of participants ([1]; esketamine Total, N = 56): 2
Sedation, % of participants ([1]; esketamine Total, N = 56): (7) %
Sedation, number of participants ([1]; esketamine Total, N = 56): 4
Throat irritation, % of participants ([1]; esketamine Total, N = 56): (5) %
Throat irritation, number of participants ([1]; esketamine Total, N = 56): 3
Total with events, % of participants ([1]; esketamine Total, N = 56): (75) %
Total with events, number of participants ([1]; esketamine Total, N = 56): 42
Tunnel vision, % of participants ([1]; esketamine Total, N = 56): (4) %
Tunnel vision, number of participants ([1]; esketamine Total, N = 56): 2
Vertigo, % of participants ([1]; esketamine Total, N = 56): (7) %
Vertigo, number of participants ([1]; esketamine Total, N = 56): 4
Vision blurred, % of participants ([1]; esketamine Total, N = 56): (4) %
Vision blurred, number of participants ([1]; esketamine Total, N = 56): 2
Adverse event: dizziness ([1]; open-label phase): 38.6%
Adverse event: dysgeusia ([1]; open-label phase): 22.8%
Adverse event: headache ([1]; open-label phase): 14.0%
Adverse event: nausea ([1]; open-label phase): 15.8%
Adverse event: sedation ([1]; open-label phase): 10.5%
Genotoxicity [2]: Genotoxic effects
